Test results reported in patent US12060347B2 (BRISTOL-MYERS SQUIBB COMPANY, priority 2016, dated 2024).

Biological target: T1, human PAR4 (Homo sapiens, UniProt Q96RI0)
T1 construct: expressed in transfected cells; host or cells: HEK293 PAR4 Clone 1.2A (BMS Arctic ID 383940)
T1 sequence (Q96RI0 18-385): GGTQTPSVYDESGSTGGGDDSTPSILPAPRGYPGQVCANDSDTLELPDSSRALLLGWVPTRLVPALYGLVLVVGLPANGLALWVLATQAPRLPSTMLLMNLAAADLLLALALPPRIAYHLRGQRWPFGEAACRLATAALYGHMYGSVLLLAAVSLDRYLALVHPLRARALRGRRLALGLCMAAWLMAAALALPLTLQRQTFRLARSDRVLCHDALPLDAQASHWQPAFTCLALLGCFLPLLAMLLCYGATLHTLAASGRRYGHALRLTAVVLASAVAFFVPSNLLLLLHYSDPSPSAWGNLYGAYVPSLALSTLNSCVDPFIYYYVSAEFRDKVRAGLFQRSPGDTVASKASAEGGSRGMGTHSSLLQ
Assay: PAR4 FLIPR assay: antagonism of agonist-peptide-induced calcium mobilization in PAR4-expressing HEK293 cells
Type: cell-based
Conditions: H-Ala-Phe(4-F)-[…]NH2-induced intracellular calcium mobilization, 11-point curves

IC50 [nM] | SMILES
0.9 | COCc1cnc2c(-c3nc4c(CO)c(C)c(OC)cc4s3)cc(C)cc2n1 [Example 300]
0.7 | COc1cnc2c(-c3nc4cc(F)c(OC[C@@H](C)OC(=O)Nc5ccc(C)nc5)cc4s3)cc(C)cc2n1 [Example 592, (R)-1-((5-fluoro-2-(2-methoxy-7-methylquinoxalin-5-yl)benzo[d]thiazol-6-yl)oxy)propan-2-yl (6-methylpyridin-3-yl)carbamate]
3.6 | COCc1cnc2c(-c3nc4ccc(CO)cc4s3)cc(C)cc2n1 [Example 308, (2-(2-(methoxymethyl)-7-methylquinoxalin-5-yl)benzo[d]thiazol-6-yl)methanol]
0.4 | COCc1cnc2c(-c3nc4c(C)cc(OC)cc4s3)cc(C#N)cc2n1 [Example 233, 8-(6-methoxy-4-methylbenzo[d]thiazol-2-yl)-3-(methoxymethyl)quinoxaline-6-carbonitrile]
5.7 | COCc1cnc2c(-c3nc4ccc(Cl)cc4s3)cc(C)cc2n1 [Example 274, 6-chloro-2-(2-(methoxymethyl)-7-methylquinoxalin-5-yl)benzo[d]thiazole]
94 | COc1cnc2c(-c3nc4ccc(OC)nc4s3)cc(C)cc2n1 [Example 150, 5-methoxy-2-(2-methoxy-7-methylquinoxalin-5-yl)thiazolo[5,4-b]pyridine]
0.8 | COc1cnc2c(-c3nc4cc(F)c(O[C@@H](C)[C@@H](C)OC(=O)Nc5ccc(C(=O)N6CCC[C@@H](O)C6)nc5)cc4s3)cc(C)cc2n1 [Example 483, (2R,3S)-3-((5-fluoro-2-(2-methoxy-7-methylquinoxalin-5-yl)benzo[d]thiazol-6-yl)oxy)butan-2-yl (6-((R)-3-hydroxypiperidine-1-carbonyl)pyridin-3-yl)carbamate]
8.6 | COc1cnc2c(-c3nc4c(C)c(F)c(OCCO)cc4s3)cc(C)cc2n1 [Example 288, 2-((5-fluoro-2-(2-methoxy-7-methylquinoxalin-5-yl)-4-methylbenzo[d]thiazol-6-yl)oxy)ethanol]
65 | Cc1cc(-c2nc3cc(F)c(O[C@@H](C)[C@@H](C)OC(=O)Nc4cnc(C)nc4)cc3s2)c2ncc(C(N)=O)nc2c1 [Example 613, (2R,3S)-3-((2-(2-carbamoyl-7-methylquinoxalin-5-yl)-5-fluorobenzo[d]thiazol-6-yl)oxy)butan-2-yl (2-methylpyrimidin-5-yl)carbamate]
32 | COc1cnc2c(-c3nc4cc(F)c(O[C@@H](C)[C@@H](C)OC(=O)Nc5ccc(C)nn5)cc4s3)cc(C)cc2n1 [Example 416, (2R,3S)-3-((5-fluoro-2-(2-methoxy-7-methylquinoxalin-5-yl)benzo[d]thiazol-6-yl)oxy)butan-2-yl (6-methylpyridazin-3-yl)carbamate]
1.8 | COCc1cnc2c(-c3nc4c(C)cc(OC)cc4s3)cc(Cl)cc2c1 [Example 625, 2-(6-chloro-3-(methoxymethyl)quinolin-8-yl)-6-methoxy-4-methylbenzo[d]thiazole]
17 | COc1cnc2c(-c3nc4cc(F)c(O[C@@H](C)[C@@H](C)OC(=O)Nc5cnc(NC(=O)c6ccc(F)c(Cl)c6)nc5)cc4s3)cc(C)cc2n1 [Example 604, (2R,3S)-3-((5-fluoro-2-(2-methoxy-7-methylquinoxalin-5-yl)benzo[d]thiazol-6-yl)oxy)butan-2-yl (2-(3-chloro-4-fluorobenzamido)pyrimidin-5-yl)carbamate]
2.8 | COc1cnc2c(-c3nc4cc(F)c(O[C@@H](C)[C@@H](C)OC(=O)Nc5ccc(OC)nc5)cc4s3)cc(Cl)cc2c1 [Example 784, (2R,3S)-3-((2-(6-chloro-3-methoxyquinolin-8-yl)-5-fluorobenzo[d]thiazol-6-yl)oxy)butan-2-yl (6-methoxypyridin-3-yl)carbamate]
1600 | Cc1cc(-c2nc3c(C)cc(OCCNS(=O)(=O)c4ccc(F)cc4)cc3s2)c2ncc(COC(F)F)nc2c1 [Example 114, N-(2-(2-(2-((difluoromethoxy)methyl)-7-methylquinoxalin-5-yl)-4-methylbenzo[d]thiazol-6-yloxy)ethyl)-4-fluorobenzenesulfonamide]
10 | COc1cnc2c(-c3nc4c(C)cc(OC[C@@H](C)OC(=O)Nc5cnc(OC)nc5)nc4s3)cc(C)cc2n1 [Example 738, (R)-1-((2-(2-methoxy-7-methylquinoxalin-5-yl)-7-methylthiazolo[5,4-b]pyridin-5-yl)oxy) propan-2-yl (2-methoxypyrimidin-5-yl)carbamate]
3 | COc1cccc2nc(-c3cc(C)cc4nc(OC(F)F)cnc34)sc12 [Example 58, 2-(2-(difluoromethoxy)-7-methylquinoxalin-5-yl)-7-methoxybenzo[d]thiazole]

IC50 [nM] | SMILES
5.7 | COCc1cnc2c(-c3nc4c(C)c(C)c(OCCO)cc4s3)cc(C)cc2n1 [Example 297, 2-((2-(2-(methoxymethyl)-7-methylquinoxalin-5-yl)-4,5-dimethylbenzo[d]thiazol-6-yl)oxy)ethanol]
0.5 | COc1cnc2c(-c3nc4cc(F)c(OC[C@@H](C)OC(=O)Nc5ccc(C(=O)NC[C@H](C)O)nc5)cc4s3)cc(C)cc2n1 [Example 450, (R)-1-((5-fluoro-2-(2-methoxy-7-methylquinoxalin-5-yl)benzo[d]thiazol-6-yl)oxy)propan-2-yl (6-(((S)-2-hydroxypropyl)carbamoyl)pyridin-3-yl)carbamate]
0.3 | COC(=O)c1ncc(NC(=O)O[C@H](C)COc2nc3sc(-c4cc(C)cc5nc(OC)cnc45)nc3cc2F)cn1 [Example 689, methyl (R)-5-((((1-((6-fluoro-2-(2-methoxy-7-methylquinoxalin-5-yl)thiazolo[5,4-b]pyridin-5-yl)oxy)propan-2-yl)oxy)carbonyl)amino)pyrimidine-2-carboxylate]
1.2 | COCc1cnc2c(-c3nc4c(C)cc(OC)nc4s3)cc(C)cc2n1 [Example 181, 5-methoxy-2-(2-(methoxymethyl)-7-methylquinoxalin-5-yl)-7-methylthiazolo[5,4-b] pyridine]
5.2 | COc1cnc2c(-c3nc4cc(F)c(OC[C@@H](C)OC(=O)Nc5ccc(C(=O)N(C)CCO)nc5)cc4s3)cc(C)cc2n1 [Example 471, (R)-1-((5-fluoro-2-(2-methoxy-7-methylquinoxalin-5-yl)benzo[d]thiazol-6-yl)oxy)propan-2-yl (6-((2-hydroxyethyl)(methyl)carbamoyl)pyridin-3-yl)carbamate]
6.5 | COCc1cnc2c(-c3nc4c(C)cc(OC)cc4s3)cc(C)cc2c1 [Example 185, 6-methoxy-2-(3-(methoxymethyl)-6-methylquinolin-8-yl)-4-methylbenzo[d]thiazole]
5.3 | COc1cc(C(O)Cc2ccccc2)c2nc(-c3cc(C)cc4nc(OC)cnc34)sc2c1 (stereo not shown) [Example 631, 1-(6-methoxy-2-(2-methoxy-7-methylquinoxalin-5-yl)benzo[d]thiazol-4-yl)-2-phenylethanol]
2.2 | C#Cc1cc(-c2nc3c(C)cc(OCCNS(=O)(=O)c4ccc(F)cc4)cc3s2)c2ncc(OC)nc2c1 [Example 230, N-(2-((2-(7-ethynyl-2-methoxyquinoxalin-5-yl)-4-methylbenzo[d]thiazol-6-yl)oxy)ethyl)-4-fluorobenzenesulfonamide]
5.1 | Cc1cc(-c2nc3cc(F)c(O[C@@H](C)[C@@H](C)OC(=O)Nc4cnc(C)nc4)cc3s2)c2ncc(OC(F)F)nc2c1 [Example 490, (2R,3S)-3-((2-(2-(difluoromethoxy)-7-methylquinoxalin-5-yl)-5-fluorobenzo[d]thiazol-6-yl)oxy)butan-2-yl (2-methylpyrimidin-5-yl)carbamate]
2.7 | COCc1cnc2c(-c3nc4cc(F)c(OC)nc4s3)cc(C)cc2n1 [Example 180, 6-fluoro-5-methoxy-2-(2-(methoxymethyl)-7-methylquinoxalin-5-yl)thiazolo[5,4-b] pyridine]
1.7 | CCOc1cnc2c(-c3nc4cc(F)c(O[C@@H](C)[C@@H](C)OC(=O)Nc5cnc(COP(=O)(O)O)nc5)cc4s3)cc(C)cc2n1 [Example 532, (2R,3S)-3-((2-(2-ethoxy-7-methylquinoxalin-5-yl)-5-fluorobenzo[d]thiazol-6-yl)oxy)butan-2-yl (2-((phosphonooxy)methyl)pyrimidin-5-yl)carbamate]
10 | COCc1cnc2c(-c3nc4c(C5CC5)c(F)c(OC)cc4s3)cc(C)cc2n1 [Example 314, 4-cyclopropyl-5-fluoro-6-methoxy-2-(2-(methoxymethyl)-7-methylquinoxalin-5-yl)benzo[d]thiazole]
3.9 | C=Cc1cc(-c2nc3c(C)cc(OCCNS(=O)(=O)c4ccc(F)cc4)cc3s2)c2ncc(OC)nc2c1 [Example 229, 4-fluoro-N-(2-((2-(2-methoxy-7-vinylquinoxalin-5-yl)-4-methylbenzo[d]thiazol-6-yl)oxy)ethyl)benzenesulfonamide]
1.2 | COCc1cnc2c(-c3nc4c(C)cccc4s3)cc(C)cc2n1 [Example 261, 2-(2-(methoxymethyl)-7-methylquinoxalin-5-yl)-4-methylbenzo[d]thiazole]
3.7 | COc1cnc2c(-c3nc4cc(F)c(OC[C@@H](C)OC(=O)Nc5cnc(CCO)nc5)cc4s3)cc(C)cc2n1 [Example 564, (R)-1-((5-fluoro-2-(2-methoxy-7-methylquinoxalin-5-yl)benzo[d]thiazol-6-yl)oxy)propan-2-yl (2-(2-hydroxyethyl)pyrimidin-5-yl)carbamate]
